In US20240279215A1 (Cytokinetics, Incorporated, priority 2022, published 2024):

Target: human NAMPT (Homo sapiens (Human), UniProt P43490)
Test: NMN fluorescence biochemical assay (human recombinant NAMPT enzyme assay)
In short: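 Activation of recombinant human NAMPT (6 nM) was tested with 2.5 mM ATP, 20 μM PRPP and 150 μM nicotinamide in 50 mM HEPES pH 7.2 for 60 min at ambient temperature. NMN was derivatized with acetophenone/KOH/formic acid and read by fluorescence (355/460 nm) after 40 min.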

human NAMPT, sequence (P43490 whole entry): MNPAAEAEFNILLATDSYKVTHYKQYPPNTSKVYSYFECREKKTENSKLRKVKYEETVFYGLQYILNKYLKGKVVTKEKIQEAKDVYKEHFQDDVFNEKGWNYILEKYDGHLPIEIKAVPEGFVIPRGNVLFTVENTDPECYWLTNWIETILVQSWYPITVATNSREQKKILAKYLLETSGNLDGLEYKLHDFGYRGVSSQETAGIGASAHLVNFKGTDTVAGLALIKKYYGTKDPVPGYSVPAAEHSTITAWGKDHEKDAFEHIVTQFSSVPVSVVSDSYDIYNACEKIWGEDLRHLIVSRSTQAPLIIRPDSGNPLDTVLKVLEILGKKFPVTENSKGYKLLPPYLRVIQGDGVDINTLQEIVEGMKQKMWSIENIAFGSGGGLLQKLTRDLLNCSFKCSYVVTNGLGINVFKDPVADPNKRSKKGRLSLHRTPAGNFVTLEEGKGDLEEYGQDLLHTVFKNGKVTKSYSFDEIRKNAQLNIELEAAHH

Structure (SMILES): C[C@H](NC(=O)C1CC1)c1ccc(NC(=O)OCc2cnco2)cc1 [Compound 266, 1,3-oxazol-5-ylmethyl N-{4-[(1S)-1-(cyclopropylformamido)ethyl]phenyl}carbamate]
- AC1.4 Human: 2.98 µM
- EC50: 14.9 µM

Structure (SMILES): C[C@H](NC(=O)c1ccnn1C)c1ccc(NC(=O)OCc2ccc(Cl)cc2)cc1 [Compound 149, (4-chlorophenyl)methyl N-{4-[(1S)-1-[(2-methylpyrazol-3-yl)formamido]ethyl]phenyl}carbamate]
- AC1.4 Human: 1.23 µM
- EC50: 7 µM

Structure (SMILES): CCC(=O)N1CCC2(CC(Cc3ccc(NC(=O)OCc4cnco4)cc3F)C2)C1 (stereo not shown) [Compound 367, oxazol-5-ylmethyl (3-fluoro-4-((6-propionyl-6-azaspiro[3.4]octan-2-yl)methyl)phenyl)carbamate]
- AC1.4 Human: 0.07 µM
- EC50: 4.77 µM

Structure (SMILES): Cc1ncc(C(=O)N[C@@H](C)c2ccc(NC(=O)OCc3ccc(Cl)cc3)cc2)o1 [Compound 218, (4-chlorophenyl)methyl N-{4-[(1S)-1-[(2-methyl-1,3-oxazol-5-yl)formamido]ethyl]phenyl}carbamate]
- AC1.4 Human: 1.99 µM
- EC50: 9.06 µM

Structure (SMILES): C[C@H](NC(=O)c1ccnn1C1CCC1)c1ccc(NC(=O)OCc2ccc(Cl)cc2)cc1 [Compound 210, (4-chlorophenyl)methyl N-{4-[(1S)-1-[(2-cyclobutylpyrazol-3-yl)formamido]ethyl]phenyl}carbamate]
- AC1.4 Human: 1.91 µM
- EC50: 3.82 µM

Structure (SMILES): CN(Cc1ccc(NC(=O)OCc2ccc(Cl)cc2)cc1)C(=O)c1cn[nH]c1 [Compound 41, (4-chlorophenyl)methyl N-{4-[(N-methyl-1-1H-pyrazol-4-ylformamido)methyl]phenyl}carbamate]
- AC1.4 Human: 0.44 µM
- EC50: 3.48 µM

Structure (SMILES): O=C(Nc1ccc(CNC(=O)N2CCCCC2)cc1)OCc1ccc(Cl)cc1 [Compound 286, (4-chlorophenyl)methyl N-{4-[(piperidine-1-carbonylamino)methyl]phenyl}carbamate]
- AC1.4 Human: 3.79 µM
- EC50: 14.2 µM

Structure (SMILES): COC1CCN(C(=O)Cc2ccc(NC(=O)OCc3ccc(Cl)cc3)cc2)CC1 [Compound 283, (4-chlorophenyl)methyl N-{4-[2-(4-methoxypiperidin-1-yl)-2-oxoethyl]phenyl}carbamate]
- AC1.4 Human: 3.61 µM
- EC50: 47.9 µM

Structure (SMILES): CCS(=O)(=O)N1CCC(Cc2ccc(NC(=O)OCc3cnco3)cc2)CC12CC2 (stereo not shown) [Compound 418, oxazol-5-ylmethyl (4-((4-(ethylsulfonyl)-4-azaspiro[2.5]octan-7-yl)methyl)phenyl)carbamate]
- AC1.4 Human: 0.18 µM
- EC50: 5.97 µM

Structure (SMILES): COc1ccc(COC(=O)Nc2ccc(CN3CCN(C)CC3=O)cc2)cc1 [Compound 168, (4-methoxyphenyl)methyl N-{4-[(4-methyl-2-oxopiperazin-1-yl)methyl]phenyl}carbamate]
- AC1.4 Human: 1.40 µM
- EC50: 13.9 µM

Structure (SMILES): Cc1cc(C(=O)NCc2ccc(NC(=O)OCc3ccc(Cl)cc3)cc2)n(C)n1 [Compound 225, (4-chlorophenyl)methyl N-(4-{[(2,5-dimethylpyrazol-3-yl)formamido]methyl}phenyl)carbamate]
- AC1.4 Human: 2.08 µM
- EC50: 9.1 µM

Structure (SMILES): CS(=O)(=O)N1CCC(Cc2ccc(NC(=O)OCc3cnco3)cc2)CC1 [Compound 18, oxazol-5-ylmethyl (4-((1-(methylsulfonyl)piperidin-4-yl)methyl)phenyl)carbamate]
- AC1.4 Human: 0.25 µM
- EC50: 16.2 µM

Structure (SMILES): COc1ccc(COC(=O)Nc2ccc(CN3CCN(C4COC4)CC3)cc2)cc1 [Compound 318, (4-methoxyphenyl)methyl N-(4-{[4-(oxetan-3-yl)piperazin-1-yl]methyl}phenyl)carbamate]
- AC1.4 Human: 6.26 µM
- EC50: 56.8 µM

Structure (SMILES): COc1cc(C(=O)NCc2ccc(NC(=O)OCc3ccc(Cl)cc3)cc2)cnc1C [Compound 195, (4-chlorophenyl)methyl N-(4-{[(5-methoxy-6-methylpyridin-3-yl)formamido]methyl}phenyl)carbamate]
- AC1.4 Human: 1.73 µM
- EC50: 8.13 µM

Structure (SMILES): CS(=O)(=O)N1CCC2(CC(Cc3ccc(NC(=O)OCc4cnco4)cc3F)C2)C1 (stereo not shown) [Compound 370, oxazol-5-ylmethyl (3-fluoro-4-((6-(methylsulfonyl)-6-azaspiro[3.4]octan-2-yl)methyl)phenyl)carbamate]
- AC1.4 Human: 0.13 µM
- EC50: 5.8 µM

Structure (SMILES): O=C(Cc1ccc(NC(=O)OCc2ccc(Cl)cc2)cc1)Nc1cncc(F)c1 [Compound 273, (4-chlorophenyl)methyl N-(4-{[(5-fluoropyridin-3-yl)carbamoyl]methyl}phenyl)carbamate]
- AC1.4 Human: 3.21 µM
- EC50: 14.4 µM

Structure (SMILES): CC(O)(c1ccncc1)c1ccc(NC(=O)OCc2cncs2)cc1 (stereo not shown) [Compound 329, thiazol-5-ylmethyl (4-(1-hydroxy-1-(pyridin-4-yl)ethyl)phenyl)carbamate]
- AC1.4 Human: 8.65 µM
- EC50: 33.6 µM

Structure (SMILES): O=C(Nc1ccc(CC(=O)N2CCCC[C@@H]2CO)cc1)OCc1ccc(Cl)cc1 [Compound 287, (4-chlorophenyl)methyl N-(4-{2-[(2R)-2-(hydroxymethyl)piperidin-1-yl]-2-oxoethyl}phenyl)carbamate]
- AC1.4 Human: 3.81 µM
- EC50: 20.6 µM

Structure (SMILES): COc1ccc(COC(=O)Nc2ccc(CN3CCN(C)C(=O)C3)cc2)cc1 [Compound 325, (4-methoxyphenyl)methyl N-{4-[(4-methyl-3-oxopiperazin-1-yl)methyl]phenyl}carbamate]
- AC1.4 Human: 7.87 µM
- EC50: 51.1 µM

Structure (SMILES): CN1CC(=O)NC[C@@H]1c1ccc(NC(=O)OCc2ccc(C(F)F)cc2)cc1 [Compound 204, 4-(difluoromethyl)benzyl (S)-(4-(1-methyl-5-oxopiperazin-2-yl)phenyl)carbamate]
- AC1.4 Human: 1.83 µM
- EC50: 21.1 µM

Structure (SMILES): Cc1ccc(C(=O)NCc2ccc(NC(=O)OCc3ccc(C(F)F)cc3)cc2)cn1 [Compound 133, (4-(difluoro-13-methyl)phenyl)methyl (4-((6-methylnicotinamido)methyl)phenyl)carbamate]
- AC1.4 Human: 1.07 µM
- EC50: 8.6 µM

Structure (SMILES): O=C1CN(C(=O)C(F)(F)c2ccc(NC(=O)OCc3ccc(Cl)cc3)cc2)CCN1 [Compound 312, (4-chlorophenyl)methyl N-{4-[1,1-difluoro-2-oxo-2-(3-oxopiperazin-1-yl)ethyl]phenyl}carbamate]
- AC1.4 Human: 5.55 µM
- EC50: 39.1 µM

Structure (SMILES): O=C(Nc1ccc(CNC(=O)c2cncc(F)c2)cc1)OCc1ccc(Cl)cc1 [Compound 271, (4-chlorophenyl)methyl N-(4-{[(5-fluoropyridin-3-yl)formamido]methyl}phenyl)]
- AC1.4 Human: 3.15 µM
- EC50: 4.8 µM

Structure (SMILES): O=C(Nc1ccc(C2CCN(C(=O)C3CC3)CC2)cc1)OCc1cnco1 [Compound 431, oxazol-5-ylmethyl (4-(1-(cyclopropanecarbonyl)piperidin-4-yl)phenyl)carbamate]
- AC1.4 Human: 0.17 µM
- EC50: 27.5 µM

Structure (SMILES): CO[C@H]1CC[C@H](NC(=O)Cc2ccc(NC(=O)OCc3ccc(Cl)cc3)cc2)CC1 [Compound 64, (4-chlorophenyl)methyl N-[4-({[(1R,4R)-4-methoxycyclohexyl]carbamoyl}methyl)phenyl]carbamate]
- AC1.4 Human: 0.58 µM
- EC50: 4.22 µM

Structure (SMILES): COC(=O)N1CC2(CC(Cc3ccc(NC(=O)OCc4cnco4)cc3F)C2)C1 [Compound 396, methyl 6-(2-fluoro-4-(((oxazol-5-ylmethoxy)carbonyl)amino)benzyl)-2-azaspiro[3.3]heptane-2-carboxylate]
- AC1.4 Human: 0.11 µM
- EC50: 6.78 µM

Structure (SMILES): Cc1ccc(Cc2ccc(NC(=O)OCc3cn[nH]c3)cc2)cn1 [Compound 65, (1H-pyrazol-4-yl)methyl (4-((6-methylpyridin-3-yl)methyl)phenyl)carbamate]
- AC1.4 Human: 0.58 µM
- EC50: 37.1 µM

Structure (SMILES): CN(Cc1ccc(NC(=O)OCc2ccc(Cl)cc2)cc1)C(=O)N1CCCC1 [Compound 128, 4-chlorobenzyl (4-((N-methylpyrrolidine-1-carboxamido)methyl)phenyl)carbamate]
- AC1.4 Human: 1.03 µM
- EC50: 4.75 µM

Structure (SMILES): CN(Cc1ccc(NC(=O)OCc2ccc(Cl)cc2)cc1)C(=O)c1ccnn1C1CCC1 [Compound 74, (4-chlorophenyl)methyl N-(4-{[1-(2-cyclobutylpyrazol-3-yl)-N-methylformamido]methyl}phenyl)carbamate]
- AC1.4 Human: 0.64 µM
- EC50: 1.42 µM

Structure (SMILES): CN(C)C(=O)N1CC2CCC(C1)C2Cc1ccc(NC(=O)OCc2cnco2)cc1 (stereo not shown) [Compound 422, oxazol-5-ylmethyl (4-((3-(dimethylcarbamoyl)-3-azabicyclo[3.2.1]octan-8-yl)methyl)phenyl)carbamate]
- AC1.4 Human: 0.07 µM
- EC50: 11.5 µM

Structure (SMILES): COc1ccc(COC(=O)Nc2ccc(NS(=O)(=O)Cc3ccccc3)cc2)cc1 [Compound 61, 4-methoxybenzyl (4-((phenylmethyl)sulfonamido)phenyl)carbamate]
- AC1.4 Human: 0.57 µM
- EC50: 2.62 µM

Structure (SMILES): CC(C)C(=O)N1CCC2(CC(c3ccc(NC(=O)OCc4cnco4)cc3F)C2)C1 (single isomer, unassigned) [Compound 361]
- AC1.4 Human: 0.08 µM
- EC50: 10.8 µM

Structure (SMILES): Cn1ccc(C(=O)NCc2ccc(NC(=O)OCc3ccc(Cl)cc3)cc2)n1 [Compound 255, (4-chlorophenyl)methyl N-(4-{[(1-methylpyrazol-3-yl)formamido]methyl}phenyl)carbamate]
- AC1.4 Human: 2.65 µM
- EC50: 31.7 µM

Structure (SMILES): CN([C@@H]1CCOC1)S(=O)(=O)c1ccc(NC(=O)OCc2ccc(Cl)cc2)cc1 [Compound 337, 4-chlorobenzyl (R)-(4-(N-methyl-N-(tetrahydrofuran-3-yl)sulfamoyl)phenyl)carbamate]
- AC1.4 Human: 10.15 µM
- EC50: 26.4 µM

Structure (SMILES): CN(Cc1ccc(NC(=O)OCc2ccc(Cl)cc2)cc1)C(=O)c1c(F)cncc1F [Compound 55, (4-chlorophenyl)methyl N-(4-{[1-(3,5-difluoropyridin-4-yl)-N-methylformamido]methyl}phenyl)carbamate]
- AC1.4 Human: 0.51 µM
- EC50: 1.82 µM
